Results taken from PMC4774911, “Biochemical Screening of Five Protein Kinases from Plasmodium falciparum against 14,000 Cell-Active Compounds” (PLoS ONE, 2016).
Where two headings read alike, the source gives them in different places.

Columns and labels:
3D7 PFLDH [1] = system: 3D7 PFLDH; set-up: method as in downloaded from ChEMBL; conditions: ref downloaded from ChEMBL; cited from earlier work
HepG2 cells = conditions: cited from earlier work
[2] = molecular target: T1, Plasmodium falciparum calcium-dependent protein kinase 1 (CDPK1) (Plasmodium falciparum, UniProt P62344); test: CDPK1 Kinase-Glo ATP-consumption screen and dose-response; type: biochemical; conditions: hits below 1 uM; read-out: CDPK1 IC50
T1 construct: 6-Histidine (N); made in house
Outline: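 Single-point testing used 1 μM final compound, then dose-response, against CDPK4 and CDPK1 with Syntide-2 (40 μM) as substrate. After 90 min, reactions were halted by 5 mM EGTA, and kinase activity was inferred from depleted ATP via Kinase-Glo luminescence.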

P. falciparum 3D7 cells = conditions: cited from earlier work
DD2 [3] = system: DD2; set-up: method as in downloaded from ChEMBL; conditions: ref downloaded from ChEMBL; cited from earlier work
3D7 PFLDH [4] = system: 3D7 PFLDH; set-up: method as in F.J. Gamo et al., Nature 2010; conditions: downloaded from ChEMBL ref F.J. Gamo et al., Nature 2010; cited from earlier work
[5] = molecular target: T2, Plasmodium falciparum protein kinase 6 (PK6) (Plasmodium falciparum, UniProt Q8IDW1); test: biochemical; conditions: hits below 1 uM; read-out: PK6 IC50
T2 construct: 6-Histidine (N); made in house
T2 sequence (Q8IDW1 1-305): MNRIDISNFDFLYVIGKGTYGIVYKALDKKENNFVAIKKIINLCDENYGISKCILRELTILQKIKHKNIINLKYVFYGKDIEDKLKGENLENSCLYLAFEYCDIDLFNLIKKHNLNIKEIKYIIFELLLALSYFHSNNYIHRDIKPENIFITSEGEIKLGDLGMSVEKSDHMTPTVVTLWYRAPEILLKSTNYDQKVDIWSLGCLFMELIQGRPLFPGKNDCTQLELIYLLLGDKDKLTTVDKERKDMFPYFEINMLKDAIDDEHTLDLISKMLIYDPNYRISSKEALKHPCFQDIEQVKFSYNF

DD2 [6] = system: DD2; set-up: method as in F.J. Gamo et al., Nature 2010; conditions: P. falciparum Dd2; downloaded from ChEMBL ref F.J. Gamo et al., Nature 2010; cited from earlier work
DD2 [7] = system: DD2; set-up: method as in F.J. Gamo et al., Nature 2010; conditions: downloaded from ChEMBL, ref F.J. Gamo et al., Nature 2010; cited from earlier work
3D7 PFLDH [8] = system: 3D7 PFLDH; set-up: method as in F.J. Gamo et al., Nature 2010; concentration or dose not given beside the values; conditions: downloaded from ChEMBL, ref F.J. Gamo et al., Nature 2010; cited from earlier work
[9] = HEPG2, ref downloaded from ChEMBL
[10] = 3D7, ref downloaded from ChEMBL
[11] = HepG2 cells, downloaded from ChEMBL ref F.J. Gamo et al., Nature 2010
[12] = P. falciparum 3D7, downloaded from ChEMBL ref F.J. Gamo et al., Nature 2010
[13] = HepG2, downloaded from ChEMBL, ref F.J. Gamo et al., Nature 2010
[14] = 3D7, downloaded from ChEMBL, ref F.J. Gamo et al., Nature 2010

T1 sequence (P62344 whole entry): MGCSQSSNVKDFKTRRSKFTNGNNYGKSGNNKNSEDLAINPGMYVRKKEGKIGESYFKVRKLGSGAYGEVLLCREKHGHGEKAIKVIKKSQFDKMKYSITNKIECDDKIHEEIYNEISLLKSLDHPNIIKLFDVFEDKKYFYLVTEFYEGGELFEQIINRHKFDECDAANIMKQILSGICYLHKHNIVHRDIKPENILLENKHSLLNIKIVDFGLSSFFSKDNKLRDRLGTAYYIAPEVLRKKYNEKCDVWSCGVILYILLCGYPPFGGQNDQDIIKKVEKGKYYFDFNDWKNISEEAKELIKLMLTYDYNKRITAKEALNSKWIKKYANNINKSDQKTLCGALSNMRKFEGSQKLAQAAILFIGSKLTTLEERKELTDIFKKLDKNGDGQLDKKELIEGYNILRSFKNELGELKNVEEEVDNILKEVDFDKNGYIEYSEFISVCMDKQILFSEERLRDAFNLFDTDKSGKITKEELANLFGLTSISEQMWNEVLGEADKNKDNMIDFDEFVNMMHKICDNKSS

| Structure (SMILES) | PCT_INHIB_3D7_PFLDH (3D7 PFLDH [1]) | PCT_INHIB_HEPG2 (HepG2 cells; [9]) | IC50 [2] | PCT_IHB_3D7 (P. falciparum 3D7 cells; [10]) | pXC50_3D7 (P. falciparum 3D7 cells; [10]) | PCT_INHB_DD2 (DD2 [3]) | PCT_INHIB_3D7_PFLDH (3D7 PFLDH [4]) | PCT_INHIB_HEPG2 (HepG2 cells; [11]) | PCT_IHB_3D7 (P. falciparum 3D7 cells; [12]) | pXC50_3D7 (P. falciparum 3D7 cells; [12]) | IC50 [5] | PCT_INHB_DD2 (DD2 [6]) | PCT_INHIB_HEPG2 (HepG2 cells; [13]) | PCT_INHB_DD2 (DD2 [7]) | PCT_IHB_3D7 (P. falciparum 3D7 cells; [14]) | pXC50_3D7 (P. falciparum 3D7 cells; [14]) | PCT_INHIB_3D7_PFLDH (3D7 PFLDH [8]) |
| --- | --- | --- | --- | --- | --- | --- | --- | --- | --- | --- | --- | --- | --- | --- | --- | --- | --- |
| COc1cc2nccc(Nc3ccc(Oc4ccccc4)cc3)c2cc1OC.Cl [TCMDC-131917] | 0 | 13 | 145 nM | 100 | 6.165 | 99 |  |  |  |  |  |  |  |  |  |  |  |
| Nc1ncc(-c2cccc(F)c2)cc1-c1nc2cc(F)ccc2[nH]1.O=C(O)C(F)(F)F [TCMDC-133132] |  |  |  |  |  |  | 0 | 54 | 100 | 6.757 | 206 nM | 88 |  |  |  |  |  |
| CNC(=O)c1ccccc1Nc1nc(Nc2cccc(CS(C)(=O)=O)c2)ncc1C.O=CO [TCMDC-133809] |  |  | 145 nM |  |  |  |  |  |  |  | 133 nM |  | 74% | 95% | 97% | 6.2733 | 0% |
| Cl.NC(=O)c1ccccc1Nc1nc(Nc2cccc(N3CCN(CCO)CC3)c2)ncc1Cl [TCMDC-134114] |  |  | 58 nM |  |  |  |  |  |  |  | 80 nM |  | 93% | 98% | 95% | 7.402 | 1% |
| COc1ccc(Nc2ncc(C#N)c(Nc3ccccc3C(N)=O)n2)cc1N1CCN(C)CC1.Cl [TCMDC-134117] |  |  | 89 nM |  |  |  |  |  |  |  | 61 nM |  | 56% | 97% | 93% | 6.867 | 0% |
| CNC(=O)c1ccccc1Nc1nc(Nc2ccc(N3CCN(C)CC3)nc2)ncc1C.Cl [TCMDC-134123] |  |  | 45 nM |  |  |  |  |  |  |  | 143 nM |  | 75% | 50% | 92% | 5.942 | 4% |
| CNC(=O)c1ccccc1Nc1nc(Nc2ccc(N3CCOCC3)cc2)ncc1Cl.Cl [TCMDC-134144] |  |  | 144 nM |  |  |  |  |  |  |  | 42 nM |  | 75% | 97% | 97% | 6.138 | 0% |
| COc1ccc(Nc2ncc(OC)c(Nc3ccccc3C(N)=O)n2)cc1N1CCN(C)CC1.O=CO [TCMDC-134149] |  |  | 967 nM |  |  |  |  |  |  |  | 270 nM |  | 63% | 96% | 100% | 6.131 | 0% |
| COc1ccc(Nc2ncc(Cl)c(Nc3cccnc3C(N)=O)n2)cc1N1CCN(C)CC1.Cl [TCMDC-134163] |  |  | 559 nM |  |  |  |  |  |  |  | 86 nM |  | 77% | 97% | 95% | 6.6478 | 6% |
| Cc1cc(Nc2ncc(Cl)c(Nc3ccccc3C(N)=O)n2)n[nH]1 [TCMDC-134170] |  |  | 76 nM |  |  |  |  |  |  |  | 129 nM |  | 70% | 96% | 98% | 6.091 | 0% |
| COc1ccc(-c2cnc3ccc(N4CCCC4)nn23)cc1OC.O=CO [TCMDC-134177] | 0 | 40 | 310 nM | 98 | 6.113 | 98 |  |  |  |  |  |  |  |  |  |  |  |
| CS(=O)(=O)Cc1ccc(Nc2nccc(N3CCCc4cc(NC(=O)Nc5cccc(C(F)(F)F)c5)ccc43)n2)cc1 [TCMDC-134309] |  |  | 145 nM |  |  |  |  |  |  |  | 385 nM |  | 46% | 99% | 100% | 6.829 | 0% |
| COc1ccc(-c2cnn3ccc(Nc4cc(OC)c(OC)c(OC)c4)nc23)cc1OC [TCMDC-134383] | 0 | 57 | 157 nM | 98 | 6.187 | 100 |  |  |  |  |  |  |  |  |  |  |  |
| O=C(O)C(F)(F)F.O=c1[nH]ccc2nc(N[C@@H]3CCCNC3)nc(Nc3ccc(S(=O)(=O)N4CCOCC4)cc3)c12 [TCMDC-135038] |  |  | 146 nM |  |  |  |  |  |  |  | 115 nM |  | 13% | 99% | 96% | 6.13 | 0% |
| COc1ccc(Nc2ncc3c(-c4cccc(NC(=O)Cc5cccc(O)c5)c4)c[nH]c3n2)cc1OC [TCMDC-135247] | 0 | 44 | 312 nM | 100 | 6.156 | 96 |  |  |  |  |  |  |  |  |  |  |  |
| COc1ccc(-c2cnc3[nH]cc(-c4ccncc4)c3c2)cc1OC [TCMDC-135853] | 0 | 52 | 390 nM | 98 | 6.899 | 97 |  |  |  |  |  |  |  |  |  |  |  |
| CS(=O)(=O)Nc1cccc(-c2cnc3[nH]cc(-c4ccc(CN)cc4)c3c2)c1 [TCMDC-136218] | 2 | 27 | 552 nM | 98 | 6.0063 | 95 |  |  |  |  |  |  |  |  |  |  |  |
| Cl.Oc1cccc(Nc2ccnc3cc(-c4nccs4)ccc23)c1 [TCMDC-138297] | 0 | 0 | 997 nM | 98 |  |  |  |  |  |  |  |  |  |  |  |  |  |
| CN1CCN(c2ccc(Nc3nccc(-c4cnn5ncccc45)n3)cc2Cl)CC1 [TCMDC-138688] |  |  | 232 nM |  |  |  | 0 | 65 | 95 | 6.08 | 179 nM | 92 |  |  |  |  |  |
| NS(=O)(=O)c1cccc(Nc2nccc(-c3cnn4ncccc34)n2)c1 [TCMDC-138919] |  |  |  |  |  |  | 0 | 39 | 89 | 6.18 | 246 nM | 89 |  |  |  |  |  |
| CN(c1ccc(NC(=O)Nc2cc(C(C)(C)C)on2)cc1)c1ccnc(NCCN2CCOCC2)n1.O=C(O)C(F)(F)F [TCMDC-141706] |  |  |  |  |  |  |  |  |  |  | 375 nM |  | 51% | 18% | 95% | 5.949 | 0% |
